Data: US8889702B2, “Derivatives of azaspiranyl-alkylcarbamates of 5-member heterocyclic compounds, preparation thereof and therapeutic use thereof” (Sanofi, priority 2009, dated 2014)

Experiments:
[1] = biological target: T1, enzyme FAAH (Fatty Acid Amide Hydrolase) (Mus musculus, UniProt O08914); assay: radioenzymatic test: hydrolysis of anandamide [ethanolamine 1-3H] with FAAH, mouse brain membrane homogenates; type: biochemical; settings: mouse brain membrane homogenate; preincubation 20 minutes at 25° C.; anandamide 10 μM; read-out: IC50 (concentration that inhibits 50% of the control enzymatic activity of FAAH)
T1 construct: The membrane homogenates are prepared extemporaneously by homogenizing the tissues; from tissue; host or cells: mouse brain (minus the cerebellum), membrane homogenate
T1 sequence (O08914 1-579): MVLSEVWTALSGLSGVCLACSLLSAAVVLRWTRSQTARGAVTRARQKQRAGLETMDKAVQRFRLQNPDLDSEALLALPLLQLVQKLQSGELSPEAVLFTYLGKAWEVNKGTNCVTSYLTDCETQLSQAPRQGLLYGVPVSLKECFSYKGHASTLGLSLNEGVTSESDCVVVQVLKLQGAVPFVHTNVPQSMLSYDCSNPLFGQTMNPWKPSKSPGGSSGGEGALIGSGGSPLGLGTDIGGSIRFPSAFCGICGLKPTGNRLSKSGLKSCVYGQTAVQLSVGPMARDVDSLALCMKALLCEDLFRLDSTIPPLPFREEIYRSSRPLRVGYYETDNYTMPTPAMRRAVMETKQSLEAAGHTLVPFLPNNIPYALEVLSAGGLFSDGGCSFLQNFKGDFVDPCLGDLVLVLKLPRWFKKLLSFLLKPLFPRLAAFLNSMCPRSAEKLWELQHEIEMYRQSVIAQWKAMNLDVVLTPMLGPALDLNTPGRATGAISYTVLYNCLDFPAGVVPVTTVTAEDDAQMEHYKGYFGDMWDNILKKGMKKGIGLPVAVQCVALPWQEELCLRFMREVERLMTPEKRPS
Protocol: The compounds of the invention underwent pharmacological tests to determine their inhibitory effect on the enzyme FAAH (Fatty Acid Amide Hydrolase).
Thus, mouse brains (minus the cerebellum) are removed and stored at −80° C. The membrane homogenates are prepared extemporaneously by homogenizing the tissues using a Precellys® machine in reaction buffer (10 mM Tris-HCl, pH=8, 150 mM NaCl and 1 mM ethylenediaminetetraacetic acid (EDTA)). The enzymatic reaction is performed in 96-well Multiscreen filtration plates in a final volume of 70 μL. Reaction buffer supplemented with fatty acid-free bovine serum albumin (BSA, 1 mg/ml) is used for the enzymatic reaction and the dilution of the compounds and of the anandamide [ethanolamine 1-^3H]. The reaction buffer containing BSA (43 μL/well), the diluted test compounds at different concentrations (7 μL/well containing 1% DMSO) and the membrane preparation (10 μL/well, i.e. 200 μg of tissue per test) are successively added to the wells. After preincubation for 20 minutes of the compounds with the enzyme at 25° C., the reaction is started by adding anandamide [ethanolamine 1-^3H]. (Specific activity of 15-20 Ci/mmol) diluted with cold anandamide (10 μL/well, final concentration of 10 μM, 0.01 μCi per test). After incubation for 20 minutes at 25° C., the enzymatic reaction is stopped by adding a […] of active charcoal prepared in 1.5M NaCl buffer and 0.5 M HCl (50 μL/well). The mixture is stirred for 10 minutes and the aqueous phase containing the ethanolamine [1-^3H] is then recovered by filtration under vacuum and counted by liquid scintillation.

male OF1 mice = assay: test of analgesia: abdominal stretching induced with PBQ (phenylbenzoquinone); type: in vivo, mouse; settings: 30 mg/kg p.o. at 120 minutes
Protocol: The in vivo activity of the compounds of the invention was evaluated in a test of analgesia.
Thus, the intraperitoneal (i.p.) administration of PBQ (phenylbenzoquinone, 2 mg/kg in 0.9% sodium chloride solution containing 5% ethanol) to male OF1 mice weighing 25 to 30 g causes abdominal stretching, on average 30 torsions or contractions within a period of 5 to 15 minutes after injection. The test compounds are administered orally (p.o.) or intraperitoneally (i.p.) suspended in Tween 80 at 0.5%, 60 minutes or 120 minutes before the administration of PBQ. Under these conditions, the compounds of the invention that are the most powerful reduce by 35% to 80% the number of stretches induced with PBQ, over a dose range of between 1 and 30 mg/kg.
For example, compound 5 of Table 1 reduces by 50% the number of stretches induced with PBQ, at a dose of 30 mg/kg p.o. at 120 minutes.

Compound | IC50 [1] [nM] | melting point [°C] | reduction of the number of stretches induced with PBQ (male OF1 mice) [%]
CNC(=O)c1cc(COC(=O)NCC2CC3(CCN(c4ccc(-c5ccc(F)cc5)cn4)C3)C2)on1 (single isomer, unassigned) [Compound 13, 3-(Methylcarbamoyl)isoxazol-5-ylmethyl 6-[5-(4-fluorophenyl)pyridin-2-yl]-6-azaspiro[3.4]oct-2-ylmethylcarbamate] |  | 180 to 182 | 
CNC(=O)c1cc(COC(=O)NC2CC3(CCN(c4ccc(-c5ccc(F)cc5)cn4)C3)C2)on1 (single isomer, unassigned) [Compound 17, 3-(Methylcarbamoyl)isoxazol-5-ylmethyl{6-[5-(4-fluorophenyl)pyridin-2-yl]-6-azaspiro[3.4]oct-2-yl}carbamate] |  | 203 to 205 | 
CNC(=O)c1cc(COC(=O)NC2CC3(CCN(c4ccc(-c5ccc(F)cc5)cn4)C3)C2)on1 (single isomer, unassigned) [Compound 18, 3-(Methylcarbamoyl)isoxazol-5-ylmethyl{6-[5-(4-fluorophenyl)pyridin-2-yl]-6-azaspiro[3.4]oct-2-yl}carbamate] |  | 194 to 196 | 
NC(=O)c1cc(COC(=O)NC2CC3(CCN(c4ccc(Br)cn4)CC3)C2)on1 [Compound 4, 3-carbamoylisoxazol-5-ylmethyl[7-(5-bromopyridin-2-yl)-7-azaspiro[3.5]non-2-yl]carbamate] | 8.2 |  | 
CNC(=O)c1cc(COC(=O)NC2CC3(CCN(c4ccc5cc(Cl)ccc5n4)CC3)C2)on1 [Compound 19, 3-(Methylcarbamoyl)isoxazol-5-ylmethyl[7-(6-chloroquinolin-2-yl)-7-azaspiro[3.5]non-2-yl]carbamate] | 1.8 |  | 
NC(=O)c1cc(COC(=O)NC2CC3(CCN(c4cncc(-c5ccc(F)cc5)n4)CC3)C2)on1 [Compound 25, 3-carbamoylisoxazol-5-ylmethyl{7-[6-(4-fluorophenyl)pyrazin-2-yl]-7-azaspiro[3.5]non-2-yl}carbamate] | 1.7 |  | 
NC(=O)c1cc(COC(=O)NC2CC23CCN(c2nccc(C(F)(F)F)n2)CC3)on1 (stereo not drawn) [Compound 40, 3-Carbamoylisoxazol-5-ylmethyl[6-(4-trifluoromethylpyrimidin-2-yl)-6-azaspiro[2.5]oct-1-yl]carbamate] | 0.5 |  | 

Second part, led by results:

IC50 [1] [nM] | melting point [°C] | Compound | reduction of the number of stretches induced with PBQ (male OF1 mice) [%]
2.3 |  | NC(=O)c1cc(COC(=O)NC2CC3(CCN(c4ccc(-c5ccc(F)cc5)cn4)C3)C2)on1 (mixture of isomers) [Compound 10, 3-Carbamoylisoxazol-5-ylmethyl{6-[5-(4-fluorophenyl)pyridin-2-yl]-6-azaspiro[3.4]oct-2-yl}carbamate] | 
0.85 | 171 to 173 | CNC(=O)c1cc(COC(=O)NCC2CC3(CCN(c4ccc(-c5ccc(F)cc5)cn4)C3)C2)on1 (single isomer, unassigned) [Compound 12, 3-(Methylcarbamoyl)isoxazol-5-ylmethyl 6-[5-(4-fluorophenyl)pyridin-2-yl]-6-azaspiro[3.4]oct-2-ylmethylcarbamate] | 
 | 216 to 218 | NC(=O)c1cc(COC(=O)NC2CC3(CCN(c4ccc(-c5ccc(F)cc5)cn4)CC3)C2)on1 [Compound 5, 3-Carbamoylisoxazol-5-ylmethyl{7-[5-(4-fluorophenyl)pyridin-2-yl]-7-azaspiro[3.5]non-2-yl}carbamate] | 50
0.25 | 190 to 192 | NC(=O)c1cc(COC(=O)NCC2CC3(CCN(c4ccc5cc(F)ccc5n4)CC3)C2)on1 [Compound 6, 3-Carbamoylisoxazol-5-ylmethyl[7-(6-fluoroquinolin-2-yl)-7-azaspiro[3.5]non-2-yl]methylcarbamate] | 
0.72 | 219 to 221 | CNC(=O)c1cc(COC(=O)NC2CC3(CCN(c4ccc(-c5ccc(F)cc5)cn4)CC3)C2)on1 [Compound 8, 3-(Methylcarbamoyl)isoxazol-5-ylmethyl 7-[5-(4-fluorophenyl)pyridin-2-yl]-7-azaspiro[3.5]non-2-ylcarbamate] | 
4.3 | 178 to 180 | CC(C)Cc1ccc(N2CCC3(CC2)CC(NC(=O)OCc2cc(C(N)=O)no2)C3)nc1 [Compound 31, 3-Carbamoylisoxazol-5-ylmethyl[7-(5-isobutylpyridin-2-yl)-7-azaspiro[3,5]non-2-yl]carbamate] | 
